Reference: US11591323B2, “Muscarinic agonists as non-steroidal and non-opioid analgesics and methods of use thereof” (Barry University, priority 2019, dated 2023)
Entries after “also recorded” stand apart in the source; their conditions may differ.

How the values were obtained:
M4 muscarinic receptor = molecular target: T1, M4 muscarinic receptor (Homo sapiens, UniProt P08173); assay: stimulation of cAMP, M4 CHO cells (M4Gs); type: cell-based; set-up: host or cells: CHO cells, stably transfected; settings: for RAi / E′MAX / τ / Δlog(τ/KA): M4Gs (↑cAMP); for RAi: Table 8, relative to carbachol; for E′MAX / τ: Table 8; for Δlog(τ/KA): Table 8, to carbachol
T1 sequence (P08173 1-479): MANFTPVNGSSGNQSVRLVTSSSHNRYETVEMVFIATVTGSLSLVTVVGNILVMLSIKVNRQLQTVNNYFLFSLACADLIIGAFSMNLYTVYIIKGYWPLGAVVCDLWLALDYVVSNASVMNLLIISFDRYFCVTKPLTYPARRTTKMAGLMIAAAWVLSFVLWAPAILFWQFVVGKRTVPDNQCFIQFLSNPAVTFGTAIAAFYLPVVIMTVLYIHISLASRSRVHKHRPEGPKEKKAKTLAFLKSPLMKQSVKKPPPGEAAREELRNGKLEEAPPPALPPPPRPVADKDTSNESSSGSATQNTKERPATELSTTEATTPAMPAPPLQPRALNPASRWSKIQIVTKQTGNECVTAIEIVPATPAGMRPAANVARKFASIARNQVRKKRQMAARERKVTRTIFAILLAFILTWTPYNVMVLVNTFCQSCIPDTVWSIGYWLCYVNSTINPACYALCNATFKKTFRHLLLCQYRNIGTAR
Protocol: To determine level of cAMP, cells in suspension were pre-incubated for 1 h with 0.4 μM [^3H]adenine, washed, and incubated for 10 min in the presence of isobutylmethylxanthine and 10 μM forskolin. […] Incubation was ended by addition of 0.2 ml of 2.5 M HCl to the samples. Samples were applied to alumina columns (1.5 g of alumina per column), washed with 2 ml ammonium acetate (pH=7.0) and eluted from columns with 4 ml ammonium acetate and measured by liquid scintillation spectrometry. […] The incubation was stopped by addition of 0.5 ml of chloroform methanol HCl mixture (2:1:0.1). After separation of water and organic phases, 0.6 ml of water phase was applied to Dowex columns (1.5 g of Dowex per column), washed by 20 ml of 60 mM ammonium formate/5 mM sodium borate buffer and eluted from columns with 4 ml of 1M ammonium formate/0.1 formic acid buffer and measured by liquid scintillation spectrometry.
(§1) Measurements of the production of cAMP and inositol phosphates: Levels of second messengers cAMP and inositol phosphates were determined in radiochemical chromatography assays as described previously. To determine level of cAMP, cells in suspension were pre-incubated for 1 h with 0.4 μM [^3H]adenine, washed, and incubated for 10 min in the presence of isobutylmethylxanthine and 10 μM forskolin. […] Incubation was ended by addition of 0.2 ml of 2.5 M HCl to the samples. Samples were applied to alumina columns (1.5 g of alumina per column), washed with 2 ml ammonium acetate (pH=7.0) and eluted from columns with 4 ml ammonium acetate and measured by liquid scintillation spectrometry. […] For this purpose, new CHO cell lines stably expressing promiscuous G15 G-protein and M2 or M4 receptor were generated by transfection with pCMV/hygro vector and hygromycin selection. To determine the rate of formation of inositol phosphates IPX, suspended cells were pre-incubated with 0.1 μM [^3H]myo-inositol for 60 min, washed, and incubated with 10 mM LiCl for 15 min. […] The incubation was stopped by addition of 0.5 ml of chloroform methanol HCl mixture (2:1:0.1). After separation of water and organic phases, 0.6 ml of water phase was applied to Dowex columns (1.5 g of Dowex per column), washed by 20 ml of 60 mM ammonium formate/5 mM sodium borate buffer and eluted from columns with 4 ml of 1M ammonium formate/0.1 formic acid buffer and measured by liquid scintillation spectrometry.
For bi-phasic response, curves were inhibitory and stimulatory phase were fitted separately. Operational Model of Functional Agonism
[formula] where y is functional response at concentration of tested compound x, EMAX is maximal response of the system, KA is equilibrium dissociation constant and nH is slope factor. Eq. 5 was fitted to data from functional experiments. Eq. 5 was fitted to data by the two-step procedure described earlier. […] In the second step, Eq. 5 with EMAX fixed to the value determined in the first step was fitted to individual experimental data sets. Relative Intrinsic Activity

striatum (M4 rich) = assay: forskolin-stimulated cAMP in dissipated rat striatum; type: cell-based; settings: in words
Protocol: Effects of compounds 6A and 7A were then measured ex vivo in dissipated rat tissues (FIG. 5). Accumulation of IPX was measured in dissipated brain cortex (rich in M1 & M3), submaxillary gland (M1 & M3), and ventral tegmental area (M5). Native tissues express about 10-times less muscarinic receptors than CHO cell lines. Accumulation of cAMP was measured in cerebellum (M2) and striatum (M4).
Rat dissipated tissues: Suspension of dissipated tissues from rat brain cortex, cerebellum, striatum, ventral tegmental area (VTA) and submaxillary glands was prepared as described previously in supplementary methods. Adult 8-weeks old male Wistar rats were scarified by cervical dislocation in accordance with current legislative and guidelines under permission of Czech Ministry of Agriculture 16OZ23113/2017-17214. Tissues were dissected immediately. Submaxillary glands were minced by scissors. Tissues were dispersed by incubation for 15 min at 37° C. in KHB supplemented with trypsin and trituration every 5 min. Large undissipated parts were removed by cell mesh. Then dissipated tissues were centrifuged 3 min at 250×g, re-suspended in KHB and centrifuged again to remove trypsin. Suspension of dissipated tissues was used immediately in experiments. Two submaxillary glands or about 400 mg of brain tissue was used a 96-sample assay.
as §1
To exclude the possibility that the observed effects of compounds 6A and 7A are the result of overexpression in the heterologous system, functional response to the compounds was measured ex vivo in dissipated native rat tissues. […] Accumulation of IPX was measured in brain cortex, submaxillary gland, and ventral tegmental area (VTA) as brain cortex and submaxillary glands are rich in M1 and in M3 receptors, respectively, and VTA is the only region expressing significant amount of M5 receptors. Accumulation of cAMP was measured in M2-rich cerebellum and M4-rich striatum.

| SMILES | RAi (M4 muscarinic receptor) | Emax of inhibition of cAMP synthesis (striatum (M4 rich)) | forskolin-stimulated cAMP level (striatum (M4 rich)) | EC50 (M4 muscarinic receptor) | Kd (M4 muscarinic receptor) | E′MAX (M4 muscarinic receptor) | τ (M4 muscarinic receptor) | Δlog(τ/KA) (M4 muscarinic receptor) |
| --- | --- | --- | --- | --- | --- | --- | --- | --- |
| C[N+]1(Cc2cccs2)CC=CCC1.[I-] (stereo not shown) [Compound 7A, 1-methyl-1-[(thiophen-2-yl)methyl]-1,2,3,6-tetrahydropyridin-1-ium iodide] | 0 | comparable to inhibition by carbachol | only a decrease in cAMP level | – | – | – | – | – |
| O=C1CCCN1CC#CCN1CCCC1 [oxotremorine, reference compound] | 3.58 ± 0.31 | – | – | 2.75 µM | 6.31 µM | 2.6 ± 0.2 fold increase | 1.3 ± 0.1 | −0.55 ± 0.06 |
| C1=CCN(Cc2cccs2)CC1.Cl [Compound 6A, 1-[(thiophen-2-yl)methyl]-1,2,3,6-tetrahydropyridin-1-ium chloride] | 0 | comparable to inhibition by carbachol | only a decrease in cAMP level | – | – | – | – | – |
| C[N+](C)(C)CCOC(N)=O [carbachol, reference compound] | – | – | transient decrease in forskolin-stimulated cAMP level at nanomolar concentrations followed by an increase at micromolar concentrations; also recorded: transient decrease in forskolin-stimulated cAMP level at sub-micromolar concentrations followed by an increase at micromolar concentrations | – | – | 2.9 ± 0.2 fold increase | 1.9 ± 0.2 | 0 |
